The assay deals with primordial-to-primary follicle transition. Kind of assay: In vitro organ culture of mouse ovaries with compound, H&E histology and counting of primordial, primary and secondary follicles. The note with it: for effect on primordial-to-primary follicle transition / primordial follicle activation: in vitro cultured mouse ovaries, concentration not given. The protocol: Ovaries obtained from mice were washed twice with culture medium. Antagonists or agonists to be tested were dissolved in suitable solvents and added to the medium. As a control medium comprising solvent without the antagonist or agonist was used. One of the ovaries was cultured in a control medium and another was cultured with the antagonist or agonist. The tested antagonists or agonists and their concentrations are outlined in table 2.
Ovaries were incubated with antagonist at 37° C. and 5% CO2 for 24 and 96 hours, respectively (see table 3).
Cultures ovaries were fixed, embedded in paraffin and sliced microscopy. The sectioned ovaries were stained with hematoxylin and eosin (H&E) to visualize the morphology of the ovary by microscopy.
The number of primordial, primary and secondary follicles was determined, and it was determined whether the antagonist or agonist was capable of regulating folliculogenesis.
C57BL/6j×CBA F1 hybrid mice (Janvier Labs, France) were housed and bred in the animal facilities at Department of Biomedicine, Aarhus University. Animals were housed in a 12:12 h controlled light-dark environment and were provided with food and water ad libitum. 7-day-old female pups were used for the study.
Pups were sacrificed and ovaries were excised. Using a stereomicroscope MZ75 (Leica Microsystems, Germany), excess tissue was removed. During the dissection, ovaries were kept at 37° C. in culture medium: aMEM (Thermo Fisher) supplemented with 10% FBS (Thermo Fisher), 100 mIU/mL of FSH (Sigma-Aldrich), 100 IU/mL penicillin (Thermo Fisher), 100 μg/mL streptomycin (Thermo Fisher) and 1% Insulin-Transferrin-Selenium (Thermo Fisher). Isolated ovaries were transferred into well inserts (PET membrane ThinCert, 0.4 μm-pore size; Greiner bio-one) in 24-well plates (Tissue culture treated, cell culture plates; Costar). 200-300 μL of culture medium was added to the well below the insert and up to two ovaries were placed on the membrane of each insert. The culture medium was supplemented with different concentrations of the tested compounds; bpV(HOpic) (Sigma-Aldrich), Temsirolimus (Sigma-Aldrich), Ketotifen (Sigma-Aldrich), 3PO (Sigma-Aldrich), Dorsomorphin (Sigma-Aldrich), AICAR (Sigma-Aldrich), NCG (Sigma-Aldrich), and Dyphylline (Cayman Chemical). Up to six wells in the 24-well plate were used for inserts. Sterile dH2O was added to the rest of the wells to ensure humidity and reduce evaporation. The ovaries were cultured at 37° C., 5% CO2 for four days. 150 μL of medium was replaced every other day with fresh culture medium.
Ovaries kept in organ culture for four days were fixed for 24 hours in 4% paraformaldehyde solution at 4° C. After fixation, ovaries were dehydrated in ethanol series using 70%, 96% and 99.9% ethanol. Xylene was used as clearing agent before the ovaries were infiltrated in paraffin wax. 5 μm-sections of samples in paraffin were cut using a microtome (Cut 6062, SLEE medical, Germany). Paraffin sections were mounted on glass slides, paraffin was melted at 60° C., and the samples were stained with hematoxylin and eosin (using standard protocols).
The samples were deparaffinized by incubating in xylene for 2×15 min. and subsequently rehydrated in series of ethanol; 3×2 min. in 99.9% ethanol, 2 min. in 96% ethanol, and 2 min. in 70% ethanol. The samples were then rinsed in dH2O, stained in hematoxylin for 40 sec., rinsed in dH2O for 5 min., and stained in eosin for 46 sec. The samples were dehydrated in ethanol: 2×2 min. in 96% ethanol, 2×2 min in 99.9% ethanol, and finally cleared up in xylene for at least 30 min before mounting the samples using Eukitt mounting medium (Sigma-Aldrich) and cover glass.
The number of follicles at each developmental stage was counted using an inverted research microscope (DM14000B, Leica Microsystems, Germany). The follicles of every 3rd to 4th section of each ovary were counted and the distribution of follicles in the different stages in percentage was determined.

As to `CN(C)C(=N)N=C(N)N` [Metformin, N,N-Dimethylimiddicarbonimiddiamid], the Effect entry reads like this: (Table 1, marked (ongoing)) “promotes”; (Table 2, marked (ongoing)) “promotes”.

As for `Cn1c(=O)c2[nH]cnc2n(C)c1=O` [Theophylline, 1,3-dimethyl-7H-purine-2,6-dione], the Effect entry is, setting by setting: (Table 1, marked (ongoing)) “promotes”; (Table 2, marked (ongoing)) “promotes”.

As for `COc1ccc(Cl)c(Nc2nc3ccccc3nc2NS(=O)(=O)c2cccc(NC(=O)C(C)(C)N)c2)c1` [XI147, 2-amino-N-[3-({3-[(2-chloro-5-methoxyphenyl)amino]quinoxalin-2-yl}sulfamoyl)phenyl]-2-m], the Effect entry is reported as “promotes” (Table 1, marked (ongoing)) and “promotes” (Table 2, marked (ongoing)).

Regarding `CC1(C)CCC2(CC1)N[C@@H](C(=O)N[C@@H]1CC[C@@H](C(N)=O)OC1)[C@H](c1ccnc(Cl)c1F)[C@]21C(=O)Nc2cc(Cl)ccc21.Cc1ccc(S(=O)(=O)O)cc1` [DS-3032b, L-Erythro-hexonamide, 2,6-anhydro-5-((((3′R,4'S,5′R)-6″-chloro-4′-(2-chloro-3-fluoro-4-pyridinyl)-1″,2″-dihydro-4,4-dimethyl-2″-oxodispiro(cyclohexane-1,2′-pyrrolidine-3′,3″-(3H)indol)-5′-yl)carbonyl)amino)-3,4,5-trideoxy-, 4-methylbenzenesulfon], the Effect entry by setting is: (Table 1, marked (ongoing)) “promotes”; (Table 2, marked (ongoing)) “promotes”.

Consider `COc1ncc(-c2nc3c(n2C(C)C)[C@H](c2ccc(Cl)cc2)N(c2cc(Cl)cn(C)c2=O)C3=O)c(OC)n1` [HDM201, (6S)-5-(5-chloro-1,2-dihydro-1-methyl-2-oxo-3-pyridinyl)-6-(4-chlorophenyl)-2-(2,4-dimethoxy-5-pyrimidinyl)-5,6-dihydro-1-(1-methylethyl)-Pyrrolo[3,4-d]imidazol-4(1H)-one], for which the Effect entry is, setting by setting: (Table 1, marked (ongoing)) “promotes”; (Table 2, marked (ongoing)) “promotes”.

Consider “PDGF-AA: peptide, expressed in E coli, SEQ ID NO: 1, binds and activates PDGFRA”, for which the Effect entry is, setting by setting: (Table 1, marked (ongoing)) “promotes”; (Table 2, marked (ongoing)) “promotes”.

Take `CCN1[C@@H](C(=O)NC23CCC(C(=O)O)(CC2)CC3)[C@H](c2cccc(Cl)c2F)[C@]2(C(=O)Nc3cc(Cl)ccc32)C12CCCCC2` [APG-115]: the Effect result runs as follows: (Table 1, marked (ongoing)) “promotes”; (Table 2, marked (ongoing)) “promotes”.

As to `CN(c1ncccc1CNc1nc(Nc2ccc3c(c2)CC(=O)N3)ncc1C(F)(F)F)S(C)(=O)=O` [PF-562271, N-methyl-N-[3-[[[2-[(2-oxo-1,3-dihydroindol-5-yl)amino]-5-(trifluoromethyl)pyrimidin-4-yl]amino]methyl]pyridin-2-yl]methanesulfonamide], the Effect result is recorded as “promotes” (Table 1, marked (ongoing)) and “promotes” (Table 2, marked (ongoing)).

`COc1cc([C@@H]2c3cc4c(cc3[C@H](O)[C@H]3COC(=O)[C@@H]23)OCO4)cc(OC)c1OC` [Picropodophyllin, (5R,5aR,8aS,9R)-5-hydroxy-9-(3,4,5-trimethoxyphenyl)-5a,6,8a,9-tetrahydro-5H-[2]benzofuro[5,6-f][1,3]benzodioxol-8-one]: the Effect result by setting is: (Table 1, marked (ongoing)) “promotes”; (Table 2, marked (ongoing)) “promotes”.

On to `COc1cc(N2CCC(N3CCN(C)CC3)CC2)ccc1Nc1nc2c(c(Nc3ccccc3S(=O)(=O)NC(C)C)n1)CCN2` [CT-707], for which the Effect entry is, setting by setting: (Table 1, marked (ongoing)) “promotes”; (Table 2, marked (ongoing)) “promotes”.

For the compound `O=C1CCc2cc(OCCCCc3nnnn3C3CCCCC3)ccc2N1` [Cilostazol, 6-[4-(1-cyclohexyltetrazol-5-yl)butoxy]-3,4-dihydro-1H-quinolin-2-one], the Effect result reads like this: (Table 1, marked (ongoing)) “promotes”; (Table 2, marked (ongoing)) “promotes”.

As to `C=CC(=O)N1CCC(Oc2cc3c(Nc4ccc(Cl)c(Cl)c4F)ncnc3cc2OC)CC1` [Poziotinib, 1-[4-[4-(3,4-dichloro-2-fluoroanilino)-7-methoxyquinazolin-6-yl]oxypiperidin-1-yl]prop-2-en-1-one], the Effect result was “promotes” (Table 1, marked (ongoing)) and “promotes” (Table 2, marked (ongoing)).

On to `Cn1c(=O)n(-c2ccc(C(C)(C)C#N)cc2)c2c3cc(-c4cnc5ccccc5c4)ccc3ncc21` [Dactolisib, -methyl-2-(4-(3-methyl-2-oxo-8-(quinolin-3-yl)-2,3-dihydro-1H-imidazo[4,5-c]quinolin-1-yl)phenyl)propanenitrile], for which the Effect entry is recorded as “promotes” (Table 1, marked (ongoing)) and “promotes” (Table 2, marked (ongoing)).

Consider `CNC(=O)c1cc(Oc2ccc(NC(=O)Nc3ccc(Cl)c(C(F)(F)F)c3)cc2)ccn1` [BIIB022, 4-[4-[[4-chloro-3-(trifluoromethyl)phenyl]carbamoylamino]phenoxy]-N-methyl-pyridine-2-carboxamide], for which the Effect entry is “promotes” (Table 1, marked (ongoing)) and “promotes” (Table 2, marked (ongoing)).

As to `c1cc(-c2cnn3cc(-c4ccc(OCCN5CCCCC5)cc4)cnc23)ccn1` [Dorsomorphin], under “5 μM dorsomorphin, four days”, the primary follicles amounted to 12.78±2.23% and the secondary follicles is listed as 15.87±3.06%. In addition, the primordial follicles (5 μM dorsomorphin, four days, own control contaminated, compared with control of another experiment) stood at 71.32±5.50%.

As to “Cixutumumab: fully human IgG1 monoclonal antibody directed against the human insulin-like growth factor-1 receptor”, the Effect entry by setting is: (Table 1, marked (ongoing)) “promotes”; (Table 2, marked (ongoing)) “promotes”.

Consider `CN1CCC(=C2c3ccccc3CC(=O)c3sccc32)CC1` [Ketotifen, 4,9-dihydro-4-(1-methyl-4-piper-idylidende)-10H-benzo(4,5)cyclohepta(1,2,b)thiophen-10-one], for which the “effect on primordial-to-primary follicle transition / primordial follicle activation” value is on record as “significantly more primordial follicles”. Moreover, under “85 nM Ketotifen, 96 hours”, the “less primary follicles than control” value was about 44%, the “less secondary follicles than control” value is listed as about 65% and the “more primordial follicles than control” value is listed as “approximately 9%”. For the same compound, the Effect result (Table 1, effect with a figure cited) is on record as “inhibits follicle”. The Effect result (Table 2, effect with a figure cited) is on record as “inhibits follicle”.

In the case of `Cc1cn(-c2cc(NC(=O)c3ccc(C)c(Nc4nccc(-c5cccnc5)n4)c3)cc(C(F)(F)F)c2)cn1` [Pirotinib, 4-methyl-N-[3-(4-methylimidazol-1-yl)-5-(trifluoromethyl)phenyl]-3-[(4-pyridin-3-ylpyrimidin-2-yl)amino]benzamide], the Effect result reads like this: (Table 1, marked (ongoing)) “promotes”; (Table 2, marked (ongoing)) “promotes”.

In the case of `O=C1C=C/C(=C(/[O-])O)N=C1.[K+].[O-][O-].[O-][O-].[O]=[V]` [bpV(HOpic)], the “effect on primordial-to-primary follicle transition / primordial follicle activation” value is given as “increase the rate of primordial-to-primary transition”.

On to `c1ccc2c(CCNc3ccc(Nc4ccncc4)cc3)c[nH]c2c1` [Serdemetan, 1-N-[2-(1H-indol-3-yl)ethyl]-4-N-pyridin-4-ylbenzene-1,4-diamine], for which the Effect result is on record as “promotes” (Table 1, marked (ongoing)) and “promotes” (Table 2, marked (ongoing)).

Regarding `C=CCN(/C=C1/C(=O)O[C@H](COC)[C@@]2(C)C1=C(O)C(=O)C1=C2[C@H](OC(C)=O)C[C@]2(C)C(=O)CC[C@@H]12)CC=C` [PX-866], the Effect entry is “promotes” (Table 1, marked (ongoing)) and “promotes” (Table 2, marked (ongoing)).

Regarding `Cc1c(NC(=O)OC[C@@H]2COCCN2)cn2ncnc(Nc3ccc4c(cnn4Cc4cccc(F)c4)c3)c12` [BMS-599626, [(3S)-morpholin-3-yl]methyl N-[4-[[1-[(3-fluorophenyl)methyl]indazol-5-yl]amino]-5-methylpyrrolo[2,1-f][1,2,4]triazin-6-yl]carbamate], the Effect entry is, setting by setting: (Table 1, marked (ongoing)) “promotes”; (Table 2, marked (ongoing)) “promotes”.
